In US20070184018A1, “Anthranilamide insecticides” (priority 2004, published 2007) one finds mortality data, which are given here for 1 molecule.

This data set deals with corn planthopper (Peregrinus maidis). In words: Test F: control of corn planthopper through contact and/or systemic means on corn (maize) plant. The class given is in vivo. Conditions: sprayed at 250 ppm, nymphs, 6 days, visually assessed. On the procedure:
Test compounds were formulated using a solution containing 10% acetone, 90% water and 300 ppm X-77™ Spreader Lo-Foam Formula non-ionic surfactant containing alkylarylpolyoxyethylene, free fatty acids, glycols and isopropanol (Loveland Industries, Inc.). The formulated compounds were applied in 1 mL of liquid through a SUJ2 atomizer nozzle with ⅛ JJ custom body (Spraying Systems Co.) positioned 1.27 cm (0.5 inches) above the top of each test unit. All experimental compounds in this screen were sprayed at 250 ppm, replicated three times. After spraying of the formulated test compound, each test unit was allowed to dry for 1 hour and then a black, screened cap was placed on top. The test units were held for 6 days in a growth chamber at 19-21° C. and 50-70% relative humidity. Each test unit was then visually assessed for insect mortality.
For evaluating control of corn planthopper (Peregrinus maidis) through contact and/or systemic means, the test unit consisted of a small open container with a 3-4 day old corn (maize) plant (spike) inside. White sand was added to the top of the soil prior to application. Test compounds were formulated and sprayed at 250 ppm and replicated three times as described for Test C. […] Each test unit was then visually assessed for insect mortality.

`Cc1cc(C#N)cc(C(N)=O)c1NC(=O)c1cc(Br)nn1-c1ccccc1Cl` [Compound 67]: the mortality result was “at least 80%”.
